Reference: US20150342959A1, “METHODS AND COMPOSITIONS FOR SUSTAINED N[…]” (DemeRx, Inc., priority 2014, published 2015)

Experiments:
[1] = tested on: healthy, drug-free male volunteers; assay: Cold pressor test (analgesic effect); type: in vivo, human; settings: adjusted for baseline
Procedure: (§1) Summary statistics (means, standard deviations, and coefficients of variation) were determined for each dose group for safety laboratory test data, ECG and pharmacokinetic parameters, and pharmacodynamic variables. Categorical variables were analysed using counts and percentages. Dose-proportionality of AUC and Cmax was assessed using linear regression. The effect of dose on pharmacodynamic parameter values over time was assessed using two-factor analysis of variance (ANOVA). Pairwise comparisons (with Tukey-Kramer adjustment) between each dose group to the placebo were conducted at each time point using the least squares estimates obtained from the ANOVA, using SAS Proc Mixed (SAS ver 6.0).
Analgesic effect was assessed based on duration of hand immersion in ice water and on visual analog scale (VAS) pain scores upon hand removal from the water bath.
(§2) Safety and tolerability of noribogaine were tested in the group of volunteers from Example 1. Cold pressor testing was conducted in 1° C. water according to the method of Mitchell et al. (J Pain 5:233-237, 2004) pre-dose, 6, 24, 48, 72 and 216 hours post-dosing. Safety evaluations included clinical monitoring, recording of adverse events (AEs), safety laboratory tests, vital signs, ECG telemetry from −2 h to 6 h after dosing, and 12-lead electrocardiograms (ECGs) up to 216 hours post-dosing.

[2] = tested on: opioid-dependent participants; assay: Time to resumption of morphine (opioid substitution treatment, OST); type: in vivo, human
[3] = Pharmacokinetics in opioid-dependent patients (Phase IB study, serum noribogaine); settings: 60, 120, 180 mg
[4] = tested on: healthy, drug-free male volunteers; assay: Pupillometry (pupillary miosis, dark-adapted pupil diameter); type: in vivo, human; settings: adjusted for baseline, p>0.9
Procedure: (§3) Pulse oximetry and capnography data were collected continuously using a GE Carescape B650 monitoring system from 2 hours prior to dosing and until six hours after dosing, and thereafter at 12, 24, 48 and 72 hours post-dosing. Additional oximetry data were collected at 120, 168 and 216 hours. Pupillary miosis was assessed by pupillometry. Dark-adapted pupil diameter was measured in triplicate using a Neuroptics PLR-200 pupillometer under standardized light intensity (<5 lux) pre-dose, and at 2, 4, 6, 12, 24, 48, 72, 96, 120, 168 and 216 hours post-dosing.
as §1

[5] = tested on: healthy, drug-free male volunteers; assay: Safety and tolerability of noribogaine in healthy humans (adverse events, vital signs, ECG); type: in vivo, human
Procedure: as §3, §2

[6] = tested on: opioid-dependent participants; assay: Opiate withdrawal scales (COWS, SOWS, OOWS); type: in vivo, human; settings: first six hours following dosing
Procedure: Patients were evaluated based on the Clinical Opiate Withdrawal Scale (COWS), Subjective Opiate Withdrawal Scale (SOWS), and Objective Opiate Withdrawal Scale (OOWS) scoring systems over the period of time between administration of noribogaine (or placebo) until resumption of OST. These scales are outlined in Guidelines for the Psychosocially Assisted Pharmacological Treatment of Opioid Dependence, World Health Organization, Geneva (2009), Annex 10, which is incorporated herein by reference in its entirety. The scales measure the intensity of withdrawal symptoms, based on clinical, subjective, and objective indicia.

CC[C@H]1CC2C[C@H]3c4[nH]c5ccc(O)cc5c4CCN(C2)C13 [noribogaine]
VAS pain scores, each dose group vs placebo by ANOVA ([1]; p=0.17): no statistically significant differences | duration of hand immersion, each dose group vs placebo by ANOVA ([1]; p>0.9): no statistically significant differences | Time to resumption of OST ([2]; 180 mg, longer than untreated patients (7 hours, not shown) or 60 mg): > 7 h | average time to resumption of opioids ([2]; single 120 mg dose): greater than 20 hours | Maximum serum concentration of noribogaine (Cmax), dose dependence [3]: increased in a dose-dependent manner | pupil diameter, each dose group vs placebo by ANOVA [4]: no statistically significant differences | adverse events reported ([5]; 3 mg dose group): five adverse events were reported by two subjects | adverse events reported ([5]; 10 mg dose group): one adverse event was reported by single subjects | adverse events reported ([5]; 30 mg dose group): one adverse event was reported by single subjects | changes in oximetry, capnography, respiratory rate ([5]; 3-60 mg): no changes in oximetry or capnography, or changes in respiratory rate | changes in vital signs or safety laboratory tests ([5]; 3-60 mg): no changes in vital signs or safety laboratory tests of note | withdrawal symptoms (COWS, OOWS, SOWS) ([6]; 120 mg): fewer withdrawal symptoms than the other patients | withdrawal symptoms, noribogaine vs placebo ([6]; 60, 120, 180 mg): placebo generally experienced more withdrawal symptoms than patients who were administered noribogaine
